Data reported in ChEMBL document CHEMBL2021853, “Discovery of 1,2,4-triazine derivatives as adenosine A(2A) antagonists using structure based drug design” (J Med Chem, 2012).

Assays:
Adenosine receptor A1 = molecular target: T1, Adenosine receptor A1 (Homo sapiens, UniProt P30542)
T1 sequence (P30542 whole entry): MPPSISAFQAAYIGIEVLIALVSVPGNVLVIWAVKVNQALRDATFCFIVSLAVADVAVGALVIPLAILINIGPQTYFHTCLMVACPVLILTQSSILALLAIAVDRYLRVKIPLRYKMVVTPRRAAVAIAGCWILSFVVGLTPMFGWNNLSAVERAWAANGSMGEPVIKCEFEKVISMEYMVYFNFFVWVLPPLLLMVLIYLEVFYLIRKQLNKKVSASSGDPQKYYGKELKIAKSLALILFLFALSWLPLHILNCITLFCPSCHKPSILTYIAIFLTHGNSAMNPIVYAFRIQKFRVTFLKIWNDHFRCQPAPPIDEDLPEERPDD

Liver microsomes = assay: Half life in rat liver microsomes at 1 uM
[1] = Kinetic solubility of the compound
Plasma = assay: Plasma protein binding in rat at 10 uM after 6 hrs
[2] = Plasma clearance in rat at 1 mg/kg, iv; format: ADME, organism-based; design: dose 1 mg/kg, route intravenous
[3] = Volume of distribution at steady state in rat at 1 mg/kg, iv; format: ADME, organism-based; design: dose 1 mg/kg, route intravenous; settings: in vivo, read-out: Vdss
[4] = Terminal half life in rat at 1 mg/kg, iv; format: ADME, organism-based; design: dose 1 mg/kg, route intravenous; settings: in vivo, read-out: beta t1/2 (converted)
[5] = AUC (infinity) in rat at 1 mg/kg, iv; format: ADME, organism-based; design: dose 1 mg/kg, route intravenous, time infinity; settings: plasma
Nucleic Acid = assay: Ratio of drug level in brain to plasma in rat at 1 mg/kg, iv at 0.5 hrs; format: ADME, organism-based; design: dose 1 mg/kg, route intravenous
[6] = Tmax in rat at 2 mg/kg, po; format: ADME, organism-based; design: dose 2 mg/kg, route oral; settings: in vivo
[7] = Cmax in rat at 2 mg/kg, po; format: ADME, organism-based; design: dose 2 mg/kg, route oral; settings: in vivo
[8] = Terminal half life in rat at 2 mg/kg, po; format: ADME, organism-based; design: dose 2 mg/kg, route oral; settings: in vivo, read-out: beta t1/2 (converted)
[9] = Oral bioavailability in rat at 2 mg/kg; format: ADME, organism-based; settings: in vivo
Rattus norvegicus [10] = assay: Reversal of haloperidol-induced catalepsy in po dosed Sprague-Dawley rat administered 30 mins post haloperidol-challenge measured after 1 hr; format: functional
Rattus norvegicus [11] = assay: Reversal of haloperidol-induced catalepsy in po dosed Sprague-Dawley rat administered 30 mins post haloperidol-challenge measured after 2 hrs; format: functional
[12] = molecular target: T2, Adenosine receptor A3 (Homo sapiens) (UniProt P0DMS8); assay: Antagonist activity at adenosine A3 receptor; format: functional
T2 sequence (whole entry): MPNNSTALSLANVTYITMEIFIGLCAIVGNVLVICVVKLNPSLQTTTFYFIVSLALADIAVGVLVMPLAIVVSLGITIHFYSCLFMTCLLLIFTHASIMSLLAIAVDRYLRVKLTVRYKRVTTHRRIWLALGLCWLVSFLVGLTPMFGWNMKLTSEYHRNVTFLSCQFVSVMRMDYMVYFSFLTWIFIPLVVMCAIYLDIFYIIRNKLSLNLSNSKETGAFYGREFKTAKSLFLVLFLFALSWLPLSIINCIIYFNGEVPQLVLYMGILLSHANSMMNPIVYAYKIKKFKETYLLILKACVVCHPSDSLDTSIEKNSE

Adenosine receptor A2b = molecular target: T3, Adenosine receptor A2b (Homo sapiens, UniProt P29275); assay: Inhibition of adenosine A2B receptor
T3 sequence (P29275 whole entry): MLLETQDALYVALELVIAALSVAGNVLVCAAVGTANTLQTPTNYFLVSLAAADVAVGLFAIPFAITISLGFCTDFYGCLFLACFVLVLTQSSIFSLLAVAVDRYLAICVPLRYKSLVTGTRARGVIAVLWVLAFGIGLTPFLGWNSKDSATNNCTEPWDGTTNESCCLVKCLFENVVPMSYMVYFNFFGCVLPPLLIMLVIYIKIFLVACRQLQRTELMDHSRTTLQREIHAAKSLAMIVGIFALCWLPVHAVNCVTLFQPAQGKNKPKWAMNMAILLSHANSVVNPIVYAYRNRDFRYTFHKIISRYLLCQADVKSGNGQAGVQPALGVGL

| Structure (SMILES) | Ki (Adenosine receptor A1) [nM] | t1/2 (Liver microsomes) [h] | Kinetic_solubility [1] [µM] | PPB (Plasma) [%] | other results |
| --- | --- | --- | --- | --- | --- |
| Cc1cc(C)cc(-c2nnc(N)nc2-c2ccccc2)c1 | 195 | 0.15 | 20 | 98 | – |
| Cc1cc(-c2nnc(N)nc2-c2ccccc2)cc(C(F)(F)F)n1 | – | 1.43 | – | 92 | clearance [2]: 42 mL/min/kg; Vd [3]: 4.6 L/kg; half-life [4]: 1.2 h; AUC(0-inf) [5]: 397 ng·h/mL; BPR (Nucleic Acid): 3.2; Tmax [6]: 0.4 h; Cmax [7]: 244 ng/mL; half-life [8]: 1.1 h; bioavailability [9]: 100%; Activity (Rattus norvegicus [10]): Dose-dependent effect; ED50 (Rattus norvegicus [10]): 0.2 mg/kg; Activity (Rattus norvegicus [11]): Dose-dependent effect; ED50 (Rattus norvegicus [11]): 0.2 mg/kg |
| Cc1cc(-c2nnc(N)nc2-c2ccccc2)cc(C)n1 | 85.1 | 1.67 | 40 | 82.1 | INH [12]: > 10 µM; Ki (Adenosine receptor A2b): 50.1 nM |
| Cc1cc(-c2nnc(N)nc2-c2cc(F)cc(F)c2)cc(C)n1 | 170 | 1.67 | 45 | – | – |
| Cc1cc(-c2nnc(N)nc2-c2ccc(F)cc2)cc(C(F)(F)F)n1 | 117 | 1.62 | – | 93 | – |
| Nc1nnc(-c2cccc(Cl)c2)c(-c2ccccc2)n1 | – | 0.483 | – | 97.9 | – |
| Nc1nnc(-c2ccccc2)c(-c2ccccc2)n1 | 275 | 0.383 | > 100 | – | – |
| Nc1nnc(-c2ccc(O)c(Cl)c2)c(-c2ccccc2)n1 | – | 1.15 | 45 | 98 | – |
| Cc1cc(-c2nnc(N)nc2-c2ccccc2)cc(C)c1O | 16.6 | 1.25 | – | 93.3 | – |
| Cc1cc(-c2nnc(N)nc2-c2cccc(F)c2)cc(C)n1 | 110 | 1.3 | – | 87 | – |
| Nc1nnc(-c2cc(Cl)cc(Cl)c2)c(-c2ccccc2)n1 | – | 1.8 | – | – | INH [12]: > 10 µM |
